Drawing on PubChem BioAssay (NCI), this text covers GI50 and TGI for eight compounds.

Assay in all cases: DTP human tumour cell line panel, 48 h
The test system of assay [1] is HOP-62 NSCLC.
The subject of assay [2] is RPMI-8226 leukemia.
Assay [3] relates to RXF 393 renal.
The subject of assay [4] is 786-0 renal.
Assay [5] deals with NCI/ADR-RES ovarian.
In assay [6] the test system is A549 NSCLC.
Assay [7] concerns HOP-92 NSCLC.
In assay [8] the test system is TK-10 renal.
For assay [9], the system named is KM12 colon.
Assay [10] has as its system HCT-15 colon.

The structures appear in SMILES notation.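 Compound exposure: 48 hours, 5 concentrations, 96-well plates. The concentration for 50% growth inhibition is given as GI50. TGI: concentration producing complete growth inhibition.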

One may read the GI50 as the concentration giving 50% growth inhibition. For orientation: TGI means the concentration at which net growth stops. Higher therefore signals lower sensitivity of the cells. As for `CCN(CC)CCNC(=O)C(Cl)=C1C(Cl)=C(Cl)C(Cl)=C1Cl`, the GI50 was 3.94 µM in assay [1]; 3.02 µM in assay [2]; 3.76 µM in assay [3]; 5.07 µM in [4]; 2.98 µM in assay [5]; 4.22 µM in assay [6]. Also, the GI50 in assay [7] was 2.37 µM; in assay [8], 3.07 µM; in assay [9], 2.75 µM; in assay [10], 2.78 µM. The TGI is 15.5 µM in assay [1]; 10.8 µM in [2]; 15.9 µM in assay [3]; 41.7 µM in assay [4]; above 100 µM in assay [5]; 76.9 µM in [6]. The TGI in assay [7] was 8.62 µM; in assay [8], above 100 µM; in assay [9], 10.6 µM; in assay [10] it was 12.7 µM.

With `C=CCCCC(O)c1ccc(C(O)c2cnc3ccccc3c2)o1` (stereo not given), the GI50 in assay [1] is 21.2 µM; in assay [2], 17.9 µM; in assay [3], 83.2 µM; in [4], 39.8 µM; in assay [5], 15.2 µM; in assay [6], 31 µM. Further, the GI50 in [7] is 60.1 µM; in assay [8] it was 33.2 µM; in [9] it was 28.1 µM; in [10], 31.4 µM. For the same compound, the TGI is 64.9 µM in [1]; 72.2 µM in assay [2]; above 100 µM in assay [3]; above 100 µM in assay [4]; 36.9 µM in [5]; above 100 µM in assay [6]. The TGI was above 100 µM in assay [7], 67 µM in assay [8], 77.9 µM in assay [9] and above 100 µM in assay [10].

Take `CCN(CC)CC(O)c1cc(-c2ccc(Cl)cc2)nc2cc(Cl)ccc12` (stereo not given): the GI50 in assay [1] was 1.93 µM; in [2] it was 2.43 µM; in assay [3], 2.75 µM; in [4] it was 1.9 µM; in assay [5], 2.25 µM; in assay [6], 1.9 µM. For the same compound, the GI50 in [7] is 1.83 µM; in [8], 1.65 µM; in [9] it was 1.7 µM; in [10], 3.05 µM. In addition, the TGI in assay [1] turned out to be 4.05 µM; in [2], 6.15 µM; in assay [3], 7.32 µM; in assay [4] it was 3.41 µM; in assay [5], 6.04 µM; in assay [6], 3.63 µM. Besides, the concentration for total growth inhibition (TGI) in assay [7] turned out to be 7.38 µM; in assay [8], 3.09 µM; in assay [9] it was 3.18 µM; in assay [10] it was 9.26 µM.

Regarding `Nc1nc(-c2ccc3ccccc3c2)cc(-c2cc(-c3ccc4ccccc4c3)nc(N)n2)n1`, the TGI in assay [1], in assay [2], in [3], in [4], in assay [5] and in assay [6] was above 100 µM in each case. Moreover, the TGI in assay [7], in assay [8], in assay [9] and in [10] was above 100 µM throughout.

On to `Cc1cc2nc3c4cc([N+](=O)[O-])ccc4n(CCN(C)C)c3nc2cc1C`, for which the GI50 in assay [1] is 0.579 µM; in assay [2], 0.459 µM; in assay [3], 0.65 µM; in [4], 0.628 µM; in assay [5], 0.382 µM; in [6] it was 0.397 µM. In addition, the GI50 in assay [7] was 0.648 µM; in [8] it was 0.373 µM; in assay [9], 0.56 µM; in assay [10], 0.36 µM. The TGI was above 40 µM in [1]; 3.19 µM in assay [2]; 2.21 µM in [3]; 3.02 µM in assay [4]; 4.6 µM in [5]; 3.67 µM in [6]. Moreover, the TGI is 13.3 µM in assay [7], 4.34 µM in assay [8], above 100 µM in assay [9] and 3.04 µM in [10].

Regarding `Cn1cc(-c2ccc3nnc(C(F)(F)c4ccc5ncccc5c4)n3n2)cn1`, the GI50 in [1] was 56.4 µM; in [2], 88.6 µM; in assay [3], 25.9 µM; in [4], 46 µM; in [5], 62.2 µM; in assay [6] it was 60.2 µM. For the same compound, the GI50 is 10.6 µM in assay [7], 32.1 µM in [8], 43.6 µM in [9] and 73 µM in [10]. The TGI in assay [1] was above 100 µM; in [2], above 100 µM; in assay [3] it was above 86.6 µM; in assay [4], above 100 µM; in assay [5] it was above 100 µM; in [6], above 100 µM. The TGI in assay [7] was above 88.9 µM; in assay [8], above 100 µM; in assay [9] it was above 100 µM; in assay [10], above 100 µM.

In the case of `[Au+].c1c[n-]cn1.c1ccc([PH+](c2ccccc2)c2ccccc2)cc1`, the GI50 was 6.24 µM in assay [1]; 8.93 µM in [2]; 1.3 µM in assay [3]; 1.66 µM in assay [4]; 32.9 µM in assay [5]; 11.7 µM in [6]. For the same compound, the GI50 is 2.36 µM in assay [7], 2.66 µM in assay [8], 14.5 µM in assay [9] and 3.42 µM in [10]. For the same compound, the TGI in [1] is 43 µM; in assay [2] it was above 90.8 µM; in assay [3], 2.66 µM; in assay [4], 3.04 µM; in [5] it was above 100 µM; in [6], 42.6 µM. Further, the TGI in [7] turned out to be 4.79 µM; in assay [8] it was 6.46 µM; in [9] it was 37.9 µM; in [10] it was 15.8 µM.

In the case of `COc1ccc(Nc2ncccc2C(=O)NCc2cn(Cc3cccc(Oc4ccccc4)c3)nn2)c(OC)c1`, the GI50 in assay [1] was 5.58 µM; in [2], 5.33 µM; in assay [3] it was 1.91 µM; in assay [4] it was 3.92 µM; in assay [5] it was 2.12 µM; in assay [6] it was 3.7 µM. The GI50 in [7] was 36.1 µM; in assay [8], 13.8 µM; in assay [9], 1.11 µM; in [10] it was 1.68 µM. Moreover, the TGI in assay [1] was above 100 µM; in [2], above 100 µM; in [3] it was above 74.2 µM; in assay [4], above 100 µM; in assay [5], 35.5 µM; in [6], above 100 µM. The TGI in [7], in assay [8], in [9] and in assay [10] was above 100 µM throughout.
